Measurements reported in PMC10174255, “Drug repurposing approach against chikungunya virus: an in vitro and in silico study” (Frontiers in Cellular and Infection Microbiology, 2023).
Where “and” joins values, the source holds several entries; their conditions need not be identical. Equal entries are not always repeated.

Key:
Vero CCL-81 cells = experiment: MTT cytotoxicity assay; settings: for The maximum nontoxic concentration used for primary screening of drugs against CHIKV: Vero CCL-81, ≥90% cell viability
CHIKV [1] = experiment: Immunofluorescence assay (percent infected cells); settings: posttreatment, IFA, compared to VC
CHIKV [2] = experiment: Western blot of viral capsid (C) protein; format: cell-based, Chikungunya virus; settings: posttreatment, maximal non-toxic concentration, normalized to β-actin
Experimental: To investigate the expression of viral proteins, a western blotting assay was performed. […] The cell cultures were subjected to different types of treatment with various concentrations of the appropriate drugs. Cells were lysed using the RIPA buffer and 2X laemmli buffer at 1:1 ratio. The cell culture lysates from uninfected, infected without treatment and infected treated cells were subjected to an electrophoretic run on 10% discontinuous SDS polyacrylamide gels followed by electroblotting onto nitrocellulose membranes. The membranes were then blocked for 30 minutes using phosphate-buffered saline (PBS) containing 5% bovine serum albumin. […] This monoclonal antibody is known to react with the capsid protein of CHIKV and was characterized and purified as described earlier ([Damle et al., 2016]). The membranes were thoroughly rinsed with tris-buffered saline with 0.1% Tween 20 (TBST) after overnight incubation (5 washes totaling a 20-minute soak with rocking), and then they were incubated with the appropriate horseradish peroxidase (HRP) conjugated anti-mouse IgG antibody for two hours while rocking. For developing the blot, ECL substrate (Thermo Scientific) was used in the dark. The image of the blot was captured using the Gel Documentation system (BioRad™, USA), and analysis was done. To quantify the protein signals (density) of the viral protein and housekeeping protein in each lane, ImageJ software was used. After calculating the signal values for each band, the background signals were subtracted from the signal. The relative level of viral protein was normalized to beta-actin (monoclonal antibody 15G5A11/E2, catalog no:MA1-140, Invitrogen, USA). Signal densities were determined using ImageJ software and were plotted using GraphPad Prism software version 7.

CHIKV [3] = experiment: Antiviral assay (pre-, co-, posttreatment) with FFU readout; settings: for anti chikungunya activity: Vero CCL-81, any treatment condition; for IC50 / anti-CHIKV activity in primary screening: FFU; for IC50: Vero CCL-81; for anti-CHIKV activity in primary screening: highest nontoxic concentration
CHIKV [4] = experiment: Time-of-addition assay (extra- and intracellular virus, FFU); settings: for effectiveness at time points of addition: added 0, 3 and 6 h post infection; for reduction in extracellular virus titer compared to VC / reduction in intracellular virus titer compared to VC: 50 µM
CHIKV [5] = experiment: Viral RNA copy number by quantitative RT-PCR
MTT cytotoxicity assay = settings: African green monkey

SMILES | The maximum nontoxic concentration used for primary screening of drugs against CHIKV (Vero CCL-81 cells) [µM] | reduction in percentage of infected cells (CHIKV [1]) | anti chikungunya activity (CHIKV [3]) | mean log10 viral titer/ml (CHIKV [3]; posttreatment, 50 µM, VC 8.870) [log10 FFU/ml] | IC50 (CHIKV [3]; posttreatment) [µM] | anti-CHIKV activity in primary screening (CHIKV [3]; posttreatment) | Selectivity Index (SI) (CHIKV [3]; pretreatment) | IC50 (CHIKV [3]; pretreatment) [µM] | anti-CHIKV activity in primary screening (CHIKV [3]; pretreatment) | CC50 (MTT cytotoxicity assay) [µM] | further results
Nc1cccc2c1CN(C1CCC(=O)NC1=O)C2=O (stereo not shown) [Lenalidomide] | 200 | – | – | – | – | – | – | – | – | – | –
Nc1nc(F)nc2nc[nH]c12 [2-Fluoroadenine] | 100 | prominently observed | exhibit anti chikungunya activity | 7.686 | 7.59 | effective | 45.56 | 9.59 | effective | 437 ± 320 | viral antigen (C protein) expression (CHIKV [2]): significant reduction; mean log10 viral titer/ml (CHIKV [3]; pretreatment, 50 µM, VC 8.665): 7.284 log10 FFU/ml; mean log10 viral titer/ml (CHIKV [3]; pretreatment, 100 µM, VC 8.665): 7.185 log10 FFU/ml; reduction in intra- and extracellular virus titer (CHIKV [4]; 100 µM, time of addition 0, 3, 6 h): ~ 1 log10; reduction in intra- and extracellular virus titers (CHIKV [4]; 25 and 50 µM): Mild reduction; effectiveness at time points of addition (CHIKV [4]): effective at all three time points; effect on viral RNA copy number (CHIKV [5]; pretreatment, 100 µM): significant reduction
Oc1ccc(/C=C/c2cc(O)cc(O)c2)cc1 [Resveratrol] | 12.5 | prominently observed | exhibit anti chikungunya activity | – | 1.72 | effective | – | – | – | 40.9 ± 4.57 | Selectivity Index (SI) (CHIKV [3]; posttreatment): 23.74; mean log10 viral titer/ml (CHIKV [3]; posttreatment, 6.25 µM, VC 8.870): 8.261 log10 FFU/ml; mean log10 viral titer/ml (CHIKV [3]; posttreatment, 12.5 µM, VC 8.870): 7.486 log10 FFU/ml; effect on extracellular titer of virus (CHIKV [4]; 6.25 µM, added at 3 and 6 h): mild but significant reduction; effect on intra- and extracellular virus titer (CHIKV [4]; 12.5 µM, added at 0, 3 and 6 h): significant decrease; effect on viral RNA copy number/titre (CHIKV [5]; posttreatment): No reduction
O=C(O)Cc1ccc(-c2ccccc2)cc1 [Felbinac] | 3.125 | – | exhibit anti chikungunya activity | – | – | – | 2205.88 | 0.238 | effective | 525 ± 200 | mean log10 viral titer/ml (CHIKV [3]; pretreatment, 1.56 µM, VC 8.665): 7.175 log10 FFU/ml; mean log10 viral titer/ml (CHIKV [3]; pretreatment, 3.125 µM, VC 8.665): 7.040 log10 FFU/ml; effect on viral RNA copy number/titre (CHIKV [5]; pretreatment): did not have any effect
CC[C@H]1CN2CCc3cc(OC)c(OC)cc3[C@@H]2C[C@@H]1C[C@H]1NCCc2cc(OC)c(OC)cc21 [Emetine] | 200 | – | exhibit anti chikungunya activity | 7.802 | 4.24 | effective | – | – | – | > 200 | mean log10 viral titer/ml (CHIKV [3]; posttreatment, 100 µM, VC 8.870): 7.550 log10 FFU/ml; mean log10 viral titer/ml (CHIKV [3]; posttreatment, 200 µM, VC 8.870): 7.306 log10 FFU/ml; effect on intra- and extracellular virus titre (CHIKV [4]; 200 µM, added at 6 h): significant reduction; effect on intra- and extracellular virus titer (CHIKV [4]; 50-200 µM, added at 0 and 3 h): significantly reduced; effect on viral RNA copy number/titre (CHIKV [5]; posttreatment): No significant reduction
Cc1ccc(NC(=O)c2ccc(CN3CCN(C)CC3)cc2)cc1Nc1nc(-c2cccnc2)cs1 [Masitinib] | – | – | – | – | – | – | – | – | – | – | cytotoxicity (Vero CCL-81 cells; Vero CCL-81, even at lowest concentrations): highly toxic
CO[C@H]1C[C@@H]2CC[C@@H](C)[C@@](O)(O2)C(=O)C(=O)N2CCCC[C@H]2C(=O)O[C@H]([C@H](C)C[C@@H]2CC[C@@H](OC(=O)C(C)(CO)CO)[C@H](OC)C2)CC(=O)[C@H](C)/C=C(\C)[C@@H](O)[C@@H](OC)C(=O)[C@H](C)C[C@H](C)/C=C/C=C/C=C/1C [Temsirolimus] | 50 | prominently observed | exhibit anti chikungunya activity | 3.678 | 6.04 | effective | 85.1 and 85.11 | 4.86 | effective | 413 ± 378 | viral antigen (C protein) expression (CHIKV [2]): significant reduction; reduction of CHIKV titre compared to VC (CHIKV [3]; discussion summary): 4-5 log10; Selectivity Index (SI) (CHIKV [3]; posttreatment): 68.41; mean log10 viral titer/ml (CHIKV [3]; posttreatment, 25 µM, VC 8.870): 7.903 log10 FFU/ml; mean log10 viral titer/ml (CHIKV [3]; pretreatment, 25 µM, VC 8.665): 7.279 log10 FFU/ml; reduction in extracellular virus titer compared to VC (CHIKV [4]; added at 0 h and 3 h): ~ 4 log10; reduction in intracellular virus titer compared to VC (CHIKV [4]; added at 0 h and 3 h): ~ 3 log10; reduction in extracellular virus titer compared to VC (CHIKV [4]; added at 6 h): ~ 3 log10; reduction in intracellular virus titer compared to VC (CHIKV [4]; added at 6 h): ~ 2 log10; effectiveness at time points of addition (CHIKV [4]): effective at all the three time points; decrease in RNA copy number of CHIKV compared to VC (CHIKV [5]; posttreatment, 50 µM): 2.487 log10; decrease in viral RNA copy number compared to VC (CHIKV [5]; pretreatment, 50 µM): 0.809 log10
